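48-hour exposure; five concentrations; linearly interpolated endpoints. At the TGI there is no net growth.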 Where a SMILES comes first, the peptide text is derived from it. The star is where a group is joined. Cbz = O=C(OCc1ccccc1)*; NHNH2 = NN*
Tests used:
Test in all cases: NCI tumour cell line growth inhibition, 48 h
[1] = system: SN12C renal
[2] = system: KM12 colon
[3] = system: OVCAR-5 ovarian
[4] = system: SK-MEL-28 melanoma
[5] = system: COLO 205 colon
[6] = system: U251 CNS
[7] = system: MCF7 breast
[8] = system: LOX IMVI melanoma
[9] = system: K-562 leukemia
[10] = system: TK-10 renal
[11] = system: SK-MEL-2 melanoma
[12] = system: 786-0 renal
[13] = system: HCC-2998 colon
[14] = system: PC-3 prostate
[15] = system: SR leukemia
[16] = system: M14 melanoma
[17] = system: OVCAR-4 ovarian
[18] = system: SW-620 colon
[19] = system: NCI-H460 lung
[20] = system: SNB-75 CNS
[21] = system: HL-60(TB) leukemia
[22] = system: HCT-15 colon
[23] = system: IGROV1 ovarian
[24] = system: MDA-MB-435
[25] = system: HOP-92 NSCLC
[26] = system: BT-549 breast
[27] = system: SF-539 CNS
[28] = system: HS 578T breast
[29] = system: UACC-62 melanoma
[30] = system: UO-31 renal
[31] = system: SK-OV-3 ovarian
[32] = system: MDA-N
[33] = system: SF-295 CNS
[34] = system: HCT-116 colon
[35] = system: HT29 colon
[36] = system: T-47D breast
[37] = system: OVCAR-8 ovarian
[38] = system: MDA-MB-231 breast
[39] = system: ACHN renal
[40] = system: CCRF-CEM leukemia
[41] = system: SF-268 CNS
[42] = system: RPMI-8226 leukemia
[43] = system: UACC-257 melanoma
[44] = system: MOLT-4 leukemia
[45] = system: HOP-62 NSCLC
[46] = system: SK-MEL-5 melanoma
[47] = system: SNB-19 CNS
[48] = system: NCI-H23 lung
[49] = system: MALME-3M melanoma
[50] = system: DU-145 prostate
[51] = system: EKVX NSCLC
[52] = system: CAKI-1 renal
[53] = system: NCI-H226 lung
[54] = system: OVCAR-3 ovarian
[55] = system: NCI/ADR-RES ovarian
[56] = system: A498 renal
[57] = system: RXF 393 renal
[58] = system: NCI-H522 lung
[59] = system: A549 NSCLC

COC(=O)CC(NC(=O)OCc1ccccc1)C(=O)NC(CC(=O)OC)C(=O)NC(CC(=O)OC)C(=O)NC(CC(=O)OC)C(=O)NC(CC(=O)OC)C(=O)NC(CC(=O)OC)C(=O)NN (stereo not given) (Cbz-D(OMe)D(OMe)D(OMe)D(OMe)D(OMe)D(OMe)-NHNH2; configuration not given here)
TGI [1]: > 100 µM
TGI [2]: > 100 µM
TGI [3]: > 100 µM
TGI [4]: > 100 µM
TGI [5]: > 100 µM
TGI [6]: > 100 µM
TGI [7]: > 100 µM
TGI [8]: > 100 µM
TGI [9]: > 100 µM
TGI [10]: > 100 µM
TGI [11]: > 100 µM
TGI [12]: > 100 µM
TGI [13]: > 100 µM
TGI [14]: > 100 µM
TGI [15]: > 100 µM
TGI [16]: > 100 µM
TGI [17]: > 100 µM
TGI [18]: > 100 µM
TGI [19]: > 100 µM
TGI [20]: > 100 µM
TGI [21]: > 100 µM
TGI [22]: > 100 µM
TGI [23]: > 100 µM
TGI [24]: > 100 µM
TGI [25]: > 100 µM
TGI [26]: > 100 µM
TGI [27]: > 100 µM
TGI [28]: > 100 µM
TGI [29]: > 100 µM
TGI [30]: > 100 µM
TGI [31]: > 100 µM
TGI [32]: > 100 µM
TGI [33]: > 100 µM
TGI [34]: > 100 µM
TGI [35]: > 100 µM
TGI [36]: > 100 µM
TGI [37]: > 100 µM
TGI [38]: > 100 µM
TGI [39]: > 100 µM
TGI [40]: > 100 µM
TGI [41]: > 100 µM
TGI [42]: > 100 µM
TGI [43]: > 100 µM
TGI [44]: > 100 µM
TGI [45]: > 100 µM
TGI [46]: > 100 µM
TGI [47]: > 100 µM

CC(=O)OCCN1c2ccccc2Sc2cnccc21
TGI [1]: > 10 µM
TGI [2]: > 10 µM
TGI [3]: > 10 µM
TGI [4]: > 10 µM
TGI [5]: > 10 µM
TGI [6]: > 10 µM
TGI [7]: > 10 µM
TGI [48]: > 10 µM
TGI [8]: > 10 µM
TGI [9]: > 10 µM
TGI [10]: > 10 µM
TGI [11]: > 10 µM
TGI [12]: > 10 µM
TGI [13]: > 10 µM
TGI [14]: > 10 µM
TGI [49]: > 10 µM
TGI [15]: > 10 µM
TGI [16]: > 10 µM
TGI [17]: > 10 µM
TGI [18]: > 10 µM
TGI [50]: > 10 µM
TGI [19]: > 10 µM
TGI [20]: > 10 µM
TGI [51]: > 10 µM
TGI [21]: > 10 µM
TGI [22]: > 10 µM
TGI [23]: > 10 µM
TGI [24]: > 10 µM
TGI [25]: > 10 µM
TGI [26]: > 10 µM
TGI [27]: > 10 µM
TGI [52]: > 10 µM
TGI [53]: > 10 µM
TGI [29]: > 10 µM
TGI [30]: > 10 µM
TGI [54]: > 10 µM
TGI [31]: > 10 µM
TGI [32]: > 10 µM
TGI [55]: > 10 µM
TGI [33]: > 10 µM
TGI [34]: > 10 µM
TGI [35]: > 10 µM
TGI [56]: > 10 µM
TGI [36]: > 10 µM
TGI [37]: > 10 µM
TGI [57]: > 10 µM
TGI [38]: > 10 µM
TGI [58]: > 10 µM
TGI [39]: > 10 µM
TGI [40]: > 10 µM
TGI [41]: > 10 µM
TGI [59]: > 10 µM
TGI [42]: > 10 µM
TGI [43]: > 10 µM
TGI [44]: > 10 µM
TGI [45]: > 10 µM
TGI [46]: > 10 µM
TGI [47]: > 10 µM

Reference: PubChem BioAssay (NCI)
